Earlier results on 1 compound are cited in patent publication US20100143437A1, “IMPLANTABLE ANALGESIC” (priority 2008, published 2010).

For the data set the following is noted: in adults.

Turning to `CCCCN1CCCCC1C(=O)Nc1c(C)cccc1C` (stereo not shown) [bupivacaine, 1-butyl-N-(2,6-dimethylphenyl) piperidine-2-carboxamide], the half life result is reported as “approximately 210 minutes”.
